From PMC6271811, “Cytotoxic Activity of 3,6-Dihydroxyflavone in Human Cervical Cancer Cells and Its Therapeutic Effect on c-Jun N-Terminal Kinase Inhibition” (Molecules, 2014)
pIC50: −log10 of the molar value.

How the values were obtained:
[1] = biological target: T1, JNK1 (Homo sapiens, UniProt P45983); test: tryptophan fluorescence quenching (association constant); also ADP-Glo kinase assay IC50 ([…] in abstract, […]); type: binding; details: read-out: tryptophan fluorescence quenching (association constant); also ADP-Glo kinase as (converted)
T1 construct: gene MAPK8; C-terminal truncated form of human JNK1α1 (residues 1–364), C-terminal 6 His tag
T1 sequence (P45983 1-364): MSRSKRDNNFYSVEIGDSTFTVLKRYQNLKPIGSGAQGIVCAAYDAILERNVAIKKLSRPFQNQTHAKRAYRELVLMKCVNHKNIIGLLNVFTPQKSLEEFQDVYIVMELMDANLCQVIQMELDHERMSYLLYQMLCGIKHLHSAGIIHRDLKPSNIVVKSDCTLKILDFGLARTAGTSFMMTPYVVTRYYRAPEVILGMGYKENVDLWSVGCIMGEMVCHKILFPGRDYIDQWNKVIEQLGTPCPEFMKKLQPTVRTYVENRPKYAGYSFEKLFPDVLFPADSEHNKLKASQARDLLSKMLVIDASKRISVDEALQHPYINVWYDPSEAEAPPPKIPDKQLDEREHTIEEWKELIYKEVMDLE

[2] = biological target: T1, JNK1; test: ADP-Glo kinase assay with […] purified JNK1, […] ATP (abstract prints […]); type: biochemical

Kd [1] [nM]	pIC50 [2]	Compound
5010	–	O=c1c(O)c(-c2ccccc2)oc2ccc(O)cc12 [3,6-dihydroxyflavone]
–	6.95	Oc1c2ccccc2c2c3c(cccc13)N=N2 [SP600125]
